Experimental data reported in ChEMBL document CHEMBL1649177, “Further identification of CTX-M-2 extended-spectrum beta-lactamase in Pseudomonas aeruginosa” (2009).
≈ marks a conversion by molar mass, not a printed value. Calls of active or inactive are those of the source. The calls are words filed in the database; no cut-off is given here.

How the values were obtained:
Pseudomonas aeruginosa [1] = assay: Antimicrobial activity against extended spectrum beta-lactamase CTX-M-2-producing Pseudomonas aeruginosa isolate P6208; type: functional, organism-based
Pseudomonas aeruginosa [2] = assay: Antimicrobial activity against extended spectrum beta-lactamase CTX-M-2-producing Pseudomonas aeruginosa isolate P6208 by Etest; type: functional

NCC[C@H](O)C(=O)N[C@@H]1C[C@H](N)[C@@H](O[C@H]2O[C@H](CN)[C@@H](O)[C@H](O)[C@H]2O)[C@H](O)[C@H]1O[C@H]1O[C@H](CO)[C@@H](O)[C@H](N)[C@H]1O
Activity (Pseudomonas aeruginosa [1]): Active

NC[C@H]1O[C@H](O[C@H]2[C@H](O)[C@@H](O[C@H]3O[C@H](CO)[C@@H](O)[C@H](N)[C@H]3O)[C@H](N)C[C@@H]2N)[C@H](N)C[C@@H]1O
Activity (Pseudomonas aeruginosa [1]): Active

CO/N=C(\C(=O)N[C@@H]1C(=O)N2C(C(=O)[O-])=C(C[N+]3(C)CCCC3)CS[C@H]12)c1csc(N)n1 [CEFEPIME]
MIC (Pseudomonas aeruginosa [2]): > 256 mg/L

CO/N=C(\C(=O)N[C@@H]1C(=O)N2C(C(=O)O)=C(COC(C)=O)CS[C@H]12)c1csc(N)n1 [CEFOTAXIME]
MIC (Pseudomonas aeruginosa [2]): > 32 mg/L

CC(C)(O/N=C(\C(=O)N[C@@H]1C(=O)N2C(C(=O)[O-])=C(C[n+]3ccccc3)CS[C@H]12)c1csc(N)n1)C(=O)O [CEFTAZIDIME]
MIC (Pseudomonas aeruginosa [2]): 2 mg/L (≈ 3.66 µM)

C[C@@H](O)[C@H]1C(=O)N2C(C(=O)O)=C(SCCNC=N)C[C@H]12 [IMIPENEM ANHYDROUS]
MIC (Pseudomonas aeruginosa [2]): 1 mg/L (≈ 3.34 µM)

COLISTIN
Activity (Pseudomonas aeruginosa [1]): Active

GENTAMICIN
Activity (Pseudomonas aeruginosa [1]): Active
